Results published in patent US10711011B2, “Substituted oxazolidines as anti-bacterial agents” (BUGWORKS RESEARCH, INC., priority 2016, dated 2020).
Converted amounts (≈) assume the structure as drawn. Where two headings read alike, the source gives them in different places.

Legend:
P. aurigenosa ATCC 27853 = assay: Minimum Inhibitory Concentration (MIC) in LB media; format: cell-based, Pseudomonas aurigenosa; settings: Pseudomonas, ATCC27853, LB Media
Description: (§1) The compounds of Formula I are of interest due to their potent antibacterial effects. The ability of the invention compounds disclosed herein to achieve an antibacterial effect may be evaluated with regard to their ability to inhibit the growth of bacterial species like Escherichia coli ATCC 25922, Staphylococcus aureus ATCC 29213, Klebsiella pneumoniae ATCC 13883, Acinetobacter baumannii ATCC 19606, Pseudomonas aurigenosa ATCC 27853, Enterococcus faecalis ATCC 29212 and Enterococcus faecalis ATCC 29212 using an assay based on the following Minimum Inhibitory Concentration (MIC) protocol:
(§2) The test bacteria are grown in Luria Bertani Broth (HIMEDIA M1245), 25 grams of the powder is dissolved in 1000 ml distilled water and sterilized by autoclaving at 15 lbs pressure (121° C.) for 20 minutes. The medium sterility is checked by incubating at 37° C. for a period of 48 h.
(§3) Bacterial cultures that are stored as glycerol stocks at −80° C. are sub cultured on LB agar plates to obtain isolated colonies. A single colony of each strain is cultured in LB broth. The cultures are incubated at 37° C., 200 rpm till they reach an optical density (OD at 600 nm) of 0.8 to 1. […] Test compounds are dissolved in dimethyl sulfoxide (DMSO) to a stock concentration of 4 mg/ml. A twofold dilution series of this DMSO stock is prepared in a 96 well V bottom microtitre plate from rows A to H. A 3 μL volume of these dilutions are transferred to a 96-well flat bottom microtitre assay plate. Controls to monitor the effects of DMSO and media sterility are included. Each well is inoculated with 150 μL of the above diluted culture. The plates are incubated at 37° C. overnight in a humidified incubator. The following morning, the plates are read using a Spectrophotometer at 600 nm wavelength. […] The antibacterial activity (MIC) determined against representative Gram positive (S. aureus, E. faecalis) and Gram negative (E. coli, P. aurigenosa, K. pneumoniae and A. baumannii) pathogen were reported Table 1.

S. aureus ATCC 29213 = assay: Minimum Inhibitory Concentration (MIC) in LB media; format: cell-based, Staphylococcus aureus; settings: Staphylococcus aureus, ATCC29213, LB Media
Description: as §1, §2, §3

[1] = Mouse intravenous pharmacokinetics; format: in vivo, BALB/c mice; settings: 2 mg/kg
Procedure: (§4) To assess the Oral and Intravenous pharmacokinetic profile of Example 13, pharmacokinetics (PK) of Example 13 was characterized in BALB/c mice following single intravenous (i.v.) dose of 2 mg/kg and single escalating oral doses of 2, 10, 50 and 100 mg/kg, respectively. This study was performed following all ethical practices as laid down in the guidelines for animal care (Registration number No. 1852/PO/Rc/S/16/CPCSEA). The study was approved by the Institutional Animals Ethics Committee (IAEC) of the test facility. For IVPK in BALB/c mice, the formulation used was DMSO: PEG400: Ethanol: Water (10:20:10:60 v/v) and Example 13 administered as solution. For POPK, the formulation used was 0.1% Tween80 in 0.25% CMC and Example 13 administered as suspension through an oral gavage. The plasma (mice) samples were analyzed by LC-MS/MS. PK parameters were estimated by non-compartmental analysis in Phoenix WinNonlin 6.4 The results of the per-oral and intravenous PK study of Example 13 are presented in Table 4 and 5

[2] = Mouse oral pharmacokinetics; format: in vivo, BALB/c mice; parameters: AUC/Dose: unit not given beside the values; settings: for Cmax/dose: in (µg/mL)/(mg/kg)
Procedure: as §4

[3] = BALB/c, mouse, plasma, iv, mice
[4] = BALB/c, mouse, plasma, mice, single oral dose 2 mg/kg
[5] = BALB/c, mouse, plasma, mice, single oral dose 10 mg/kg
[6] = BALB/c, mouse, plasma, mice, single oral dose 50 mg/kg
[7] = BALB/c, mouse, plasma, mice, single oral dose 100 mg/kg
[8] = mice, single oral dose 10 mg/kg
[9] = mice, single oral dose 50 mg/kg
[10] = mice, single oral dose 100 mg/kg

Question: For `CN1C(=O)Cc2ccc(F)c(CCNCCC3CN(c4ccc5c(n4)NC(=O)CO5)C(=O)O3)c21` (single isomer, unassigned) [Example 13, 6-(5-(2-((2-(6-fluoro-1-methyl-2-oxoindolin-7-yl)ethyl)amino)ethyl)-2-oxooxazolidin-3-yl)-2H-pyrido[3,2-b][1,4]oxazin-3(4H)-one], which MIC (P. aurigenosa ATCC 27853) is on record?
Answer: Its MIC is 0.5 µg/mL (≈ 1.07 µM).

Question: What about the MIC (S. aureus ATCC 29213) of the same compound?
Answer: Its MIC is 0.03 µg/mL (≈ 0.0639 µM).

Question: What about the clearance ([1]; BALB/c, mouse, plasma, iv, BALB/c mice, single i.v. dose of 2.0 mg/kg, read-out: systemic clearance (converted)) of the same compound?
Answer: Its clearance is 95 mL/min/kg.

Question: What about the Vd ([1]; BALB/c, mouse, plasma, iv, BALB/c mice, single i.v. dose of 2.0 mg/kg, read-out: volume of distribution at steady state) of the same compound?
Answer: Its Vd is 13.3 L/kg.

Question: And the half-life [1, 3]?
Answer: Its half-life is 1.7 h.

Question: What about the clearance ([1]; BALB/c, mouse, plasma, iv, mice, i.v., read-out: CL (converted)) of the same compound?
Answer: The clearance was 94.8 mL/min/kg.

Question: What about the Vd ([1]; BALB/c, mouse, plasma, iv, mice, i.v., read-out: Vss) of the same compound?
Answer: The Vd was 13.3 L/kg.

Question: And the AUC(0-inf) [1, 3]?
Answer: Its AUC(0-inf) is 352 ng·h/mL.

Question: And the AUC(0-t) [1, 3]?
Answer: Its AUC(0-t) is 352 ng·h/mL.

Question: What about the “AUC (% Extrap)” value ([1]; mice, i.v.) of the same compound?
Answer: The value was 0.002%.

Question: And the Ke ([1]; mice, i.v.)?
Answer: Its Ke is 0.403 h⁻¹.

Question: What about the t1/2 ([1]; mice, i.v.) of the same compound?
Answer: Its t1/2 is 1.718 h.

Question: What about the Cmax ([2]; BALB/c, mouse, plasma, po, 2 mg/kg, mice, single oral dose 2 mg/kg) of the same compound?
Answer: Its Cmax is 6 ng/mL.

Question: And the AUC(0-inf) ([2]; BALB/c, mouse, plasma, po, 2 mg/kg, mice, single oral dose 2 mg/kg, read-out: AUC0-∞)?
Answer: Its AUC(0-inf) is 70 ng·h/mL.

Question: And the half-life ([2]; BALB/c, mouse, plasma, po, 2 mg/kg, mice, single oral dose 2 mg/kg, read-out: t1/2 (converted))?
Answer: Its half-life is 5.63 h.

Question: And the Cmax ([2]; BALB/c, mouse, plasma, po, 10 mg/kg, mice, single oral dose 10 mg/kg)?
Answer: The Cmax was 108 ng/mL.

Question: What about the AUC(0-inf) ([2]; BALB/c, mouse, plasma, po, 10 mg/kg, mice, single oral dose 10 mg/kg, read-out: AUC0-∞) of the same compound?
Answer: The AUC(0-inf) was 335 ng·h/mL.

Question: What about the half-life ([2]; BALB/c, mouse, plasma, po, 10 mg/kg, mice, single oral dose 10 mg/kg, read-out: t1/2 (converted)) of the same compound?
Answer: Its half-life is 2.13 h.

Question: And the Cmax ([2]; BALB/c, mouse, plasma, po, 50 mg/kg, mice, single oral dose 50 mg/kg)?
Answer: Its Cmax is 740 ng/mL.

Question: And the AUC(0-inf) ([2]; BALB/c, mouse, plasma, po, 50 mg/kg, mice, single oral dose 50 mg/kg, read-out: AUC0-∞)?
Answer: Its AUC(0-inf) is 1970 ng·h/mL.

Question: And the half-life ([2]; BALB/c, mouse, plasma, po, 50 mg/kg, mice, single oral dose 50 mg/kg, read-out: t1/2 (converted))?
Answer: The half-life was 1.6 h.

Question: What about the AUC(0-inf) ([2]; BALB/c, mouse, plasma, po, 100 mg/kg, BALB/c mice, single oral doses of 2, 10, 50 and 100 mg/kg, read-out: AUC0-∞, range over oral doses) of the same compound?
Answer: The AUC(0-inf) was 70 to 4820 ng·h/mL.

Question: And the Clast ([2]; BALB/c, mouse, plasma, po, 100 mg/kg, BALB/c mice, single oral doses of 2, 10, 50 and 100 mg/kg, read-out: Cmax, range over oral doses)?
Answer: Its Clast is 4 to 72 ng/mL.

Question: And the half-life ([2]; BALB/c, mouse, plasma, po, 100 mg/kg, BALB/c mice, single oral doses of 2, 10, 50 and 100 mg/kg, read-out: t1/2, range over oral doses)?
Answer: The half-life was 1.4 to 5.6 h.

Question: And the Cmax ([2]; BALB/c, mouse, plasma, po, 100 mg/kg, mice, single oral dose 100 mg/kg)?
Answer: The Cmax was 2380 ng/mL.

Question: And the AUC(0-inf) ([2]; BALB/c, mouse, plasma, po, 100 mg/kg, mice, single oral dose 100 mg/kg, read-out: AUC0-∞)?
Answer: Its AUC(0-inf) is 4820 ng·h/mL.

Question: And the half-life ([2]; BALB/c, mouse, plasma, po, 100 mg/kg, mice, single oral dose 100 mg/kg, read-out: t1/2 (converted))?
Answer: Its half-life is 1.42 h.

Question: What about the AUC(0-t) [2, 4] of the same compound?
Answer: The AUC(0-t) was 70 ng·h/mL.

Question: And the Tmax [2, 4]?
Answer: Its Tmax is 1 h.

Question: What about the concentration at 24 h ([2]; BALB/c, mouse, plasma, mice, single oral dose 2 mg/kg, read-out: Clast) of the same compound?
Answer: Its concentration at 24 h is 4 ng/mL.

Question: And the AUC(0-t) [2, 5]?
Answer: Its AUC(0-t) is 311 ng·h/mL.

Question: What about the Tmax [2, 5] of the same compound?
Answer: Its Tmax is 0.5 h.

Question: And the concentration at 8 h ([2]; BALB/c, mouse, plasma, mice, single oral dose 10 mg/kg, read-out: Clast)?
Answer: Its concentration at 8 h is 9 ng/mL.

Question: What about the AUC(0-t) [2, 6] of the same compound?
Answer: The AUC(0-t) was 1900 ng·h/mL.

Question: What about the Tmax [2, 6] of the same compound?
Answer: Its Tmax is 0.5 h.

Question: And the concentration at 8 h ([2]; BALB/c, mouse, plasma, mice, single oral dose 50 mg/kg, read-out: Clast)?
Answer: The concentration at 8 h was 28 ng/mL.

Question: What about the AUC(0-t) [2, 7] of the same compound?
Answer: The AUC(0-t) was 4700 ng·h/mL.

Question: What about the Tmax [2, 7] of the same compound?
Answer: Its Tmax is 1 h.

Question: And the concentration at 8 h ([2]; BALB/c, mouse, plasma, mice, single oral dose 100 mg/kg, read-out: Clast)?
Answer: Its concentration at 8 h is 72 ng/mL.

Question: And the AUC/Dose ([2]; mice, single oral dose 2 mg/kg)?
Answer: The AUC/Dose was 0.036.

Question: What about the F ([2]; mice, single oral dose 2 mg/kg) of the same compound?
Answer: The F was 20.6%.

Question: And the Ke ([2]; mice, single oral dose 2 mg/kg)?
Answer: The Ke was 0.123 h⁻¹.

Question: What about the Tlast ([2]; mice, single oral dose 2 mg/kg) of the same compound?
Answer: Its Tlast is 24 h.

Question: And the Cmax/dose ([2]; mice, single oral dose 2 mg/kg)?
Answer: The Cmax/dose was 0.003.

Question: And the AUC/Dose [2, 8]?
Answer: Its AUC/Dose is 0.034.

Question: What about the F [2, 8] of the same compound?
Answer: The F was 19.0%.

Question: What about the Ke [2, 8] of the same compound?
Answer: Its Ke is 0.325 h⁻¹.

Question: What about the Tlast [2, 8] of the same compound?
Answer: The Tlast was 8 h.

Question: And the Cmax/dose [2, 8]?
Answer: Its Cmax/dose is 0.011.

Question: What about the AUC/Dose [2, 9] of the same compound?
Answer: The AUC/Dose was 0.039.

Question: And the F [2, 9]?
Answer: The F was 22.3%.

Question: And the Ke [2, 9]?
Answer: Its Ke is 0.433 h⁻¹.

Question: What about the Tlast [2, 9] of the same compound?
Answer: The Tlast was 8 h.

Question: What about the Cmax/dose [2, 9] of the same compound?
Answer: The Cmax/dose was 0.015.

Question: And the AUC/Dose [2, 10]?
Answer: Its AUC/Dose is 0.048.

Question: And the F [2, 10]?
Answer: The F was 27.4%.

Question: What about the Ke [2, 10] of the same compound?
Answer: Its Ke is 0.489 h⁻¹.

Question: And the Tlast [2, 10]?
Answer: Its Tlast is 8 h.

Question: What about the Cmax/dose [2, 10] of the same compound?
Answer: The Cmax/dose was 0.024.

Question: What about the bioavailability ([2]; mouse, plasma, BALB/c mice, single oral doses of 2, 10, 50 and 100 mg/kg, read-out: oral bioavailability, range over oral doses) of the same compound?
Answer: Its bioavailability is 19 to 27%.
